Data reported in patent US11149018B2, “Substituted N-arylethyl-2-aminoquinoline-4-carboxamides and use thereof” (Bayer Aktiengesellschaft, priority 2017, dated 2021).

What follows are compounds tested against FP receptor (Homo sapiens (Human), UniProt P43088) (assay: In vitro test of inhibition of human FP receptor activity (PGF2α-induced calcium flux in FP-expressing CHEM1 cells)). Conditions: PGF2α 2 nM, some mean values of multiple determinations.
Type: cell-based
In short: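 FP antagonism in FP-expressing CHEM1 cells loaded with Fluo-8. Compound preincubated 10 min at 37° C, then receptor stimulated with 2 nM (final) PGF2α in calcium-free Tyrode with 2 mM CaCl2.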

Chain of FP receptor (P43088 whole entry): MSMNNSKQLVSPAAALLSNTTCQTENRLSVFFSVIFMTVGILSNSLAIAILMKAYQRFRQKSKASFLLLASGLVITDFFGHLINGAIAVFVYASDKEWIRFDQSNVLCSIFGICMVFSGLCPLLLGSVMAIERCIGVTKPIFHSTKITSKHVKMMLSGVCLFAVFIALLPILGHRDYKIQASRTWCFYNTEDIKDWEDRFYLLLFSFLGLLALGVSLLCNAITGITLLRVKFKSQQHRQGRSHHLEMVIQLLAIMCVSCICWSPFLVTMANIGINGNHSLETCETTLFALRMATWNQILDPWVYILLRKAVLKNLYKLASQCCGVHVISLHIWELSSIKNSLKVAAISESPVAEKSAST

Compound	IC50 [nM]
Cc1ccccc1C(CCC(=O)O)CNC(=O)c1c(C)c(N2CCCC(F)(F)C2)nc2ccc(Br)cc12 (racemic) [Example 229, (+/−)-5-({[6-Bromo-2-(3,3-difluoropiperidin-1-yl)-3-methylquinolin-4-yl]carbonyl}amino)-4-(2-methylphenyl)pentanoic acid]	13
Cc1ccccc1C(CCC(=O)O)CNC(=O)c1c(C)c(N2CCCC2)nc2ccc(Br)cc12 (racemic) [Example 232, (+/−)-5-({[6-Bromo-3-methyl-2-(pyrrolidin-1-yl)quinolin-4-yl]carbonyl}amino)-4-(2-methylphenyl)pentanoic acid]	18
Cc1c(N2CCCCC2)nc2ccc(Br)cc2c1C(=O)NCC(CCC(=O)O)c1c(Cl)cccc1Cl (racemic) [Example 241, (+/−)-5-({[6-Bromo-3-methyl-2-(piperidin-1-yl)quinolin-4-yl]carbonyl}amino)-4-(2,6-dichlorophenyl)pentanoic acid]	12
Cc1ccccc1C(CCC(=O)O)CNC(=O)c1c(C)c(N2CCCCC2)nc2ccc(Br)cc12 (racemic) [Example 242, (+/−)-5-({[6-Bromo-3-methyl-2-(piperidin-1-yl)quinolin-4-yl]carbonyl}amino)-4-(2-methylphenyl)pentanoic acid]	7.1
Cc1ccccc1C(CCC(=O)O)CNC(=O)c1c(C)c(N2CCCCCC2)nc2ccc(Br)cc12 (racemic) [Example 243, (+/−)-5-({[2-(Azepan-1-yl)-6-bromo-3-methylquinolin-4-yl]carbonyl}amino)-4-(2-methylphenyl)pentanoic acid]	11
Cc1c(N2CCCCC2)nc2ccc(Br)cc2c1C(=O)NCC(CCC(=O)O)c1c(F)cccc1F (racemic) [Example 244, (+/−)-5-({[6-Bromo-3-methyl-2-(piperidin-1-yl)quinolin-4-yl]carbonyl}amino)-4-(2,6-difluorophenyl)pentanoic acid]	12
Cc1c(N2CC=CCC2)nc2ccc(Br)cc2c1C(=O)NCC(CCC(=O)O)c1ccccc1Cl (single isomer, unassigned) [Example 30, 5-({[6-Bromo-2-(3,6-dihydropyridin-1(2H)-yl)-3-methylquinolin-4-yl]carbonyl}amino)-4-(2-chlorophenyl)pentanoic acid]	8.7

The next lines start with the values.

IC50 [nM]	Compound
55	Cc1c(N2CCCC2)nc2ccc(Br)cc2c1C(=O)NCC(CCC(=O)O)c1c(F)cccc1F (racemic) [Example 247, (+/−)-5-({[6-Bromo-3-methyl-2-(pyrrolidin-1-yl)quinolin-4-yl]carbonyl}amino)-4-(2,6-difluorophenyl)pentanoic acid hydrogenformate]
20	Cc1c(N2CCCC(F)(F)C2)nc2ccc(Br)cc2c1C(=O)NCC(CCC(=O)O)c1c(F)cccc1F (racemic) [Example 250, (+/−)-5-({[6-Bromo-2-(3,3-difluoropiperidin-1-yl)-3-methylquinolin-4-yl]carbonyl}amino)-4-(2,6-difluorophenyl)pentanoic acid]
20	Cc1c(N2CCCCC2)nc2ccc(Br)cc2c1C(=O)NCC(CCC(=O)O)c1cc(F)ccc1F (racemic) [Example 255, (+/−)-5-({[6-Bromo-3-methyl-2-(piperidin-1-yl)quinolin-4-yl]carbonyl}amino)-4-(2,5-difluorophenyl)pentanoic acid]
80	Cc1c(N2CCCC2)nc2ccc(Br)cc2c1C(=O)NCC(CCC(=O)O)c1cc(F)ccc1F (racemic) [Example 258, (+/−)-5-({[6-Bromo-3-methyl-2-(pyrrolidin-1-yl)quinolin-4-yl]carbonyl}amino)-4-(2,5-difluorophenyl)pentanoic acid]
28	Cc1c(N2CCCC(F)(F)C2)nc2ccc(Br)cc2c1C(=O)NCC(CCC(=O)O)c1cc(F)ccc1F (racemic) [Example 261, (+/−)-5-({[6-Bromo-2-(3,3-difluoropiperidin-1-yl)-3-methylquinolin-4-yl]carbonyl}amino)-4-(2,5-difluorophenyl)pentanoic acid]
